Tests used:
Experiment in all cases: relative viability (nuclei count vs DMSO), 5 days (fraction); higher = more cells survive
Tanzisertib + Lapatinib = compound: O[C@H]1CC[C@H](Nc2ncc3nc(Nc4c(F)cc(F)cc4F)n([C@H]4CCOC4)c3n2)CC1 [Tanzisertib] + CS(=O)(=O)CCNCc1ccc(-c2ccc3ncnc(Nc4ccc(OCc5cccc(F)c5)c(Cl)c4)c3c2)o1 [Lapatinib] (partner 2 µM)
How it was run: (§1)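 Cells from lung cancer lines were seeded into 1536-well plates and, one day later, dosed by pin tool. Treatments were either a single drug or a fixed dose of an anchor drug with five library-drug doses (not always all listed) in √10 steps. After 5 days, nuclei were stained in a one-step fixation (final 0.05% Triton X-100, 1% formaldehyde, 1 ug/ml Hoechst) and counted on 4× images, and relative viability is the treated-to-vehicle nuclei ratio, as the median of duplicate plates.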

[1] = compound: C1CNCCC1C2=CC(=NN2)C3=CC=NC=C3 + COc1cc2c(Oc3ccc(NC(=O)C4(C(=O)Nc5ccc(F)cc5)CC4)cc3F)ccnc2cc1OCCCN1CCOCC1 [Foretinib] (partner 0.25 µM)
How it was run: as §1

[2] = compound: C1CNCCC1C2=CC(=NN2)C3=CC=NC=C3 + CC1(C)CCC(c2ccc(Cl)cc2)=C(CN2CCN(c3ccc(C(=O)NS(=O)(=O)c4ccc(N[C@H](CCN5CCOCC5)CSc5ccccc5)c(S(=O)(=O)C(F)(F)F)c4)cc3)CC2)C1 [Navitoclax] (partner 0.5 µM)
How it was run: as §1

[3] = compound: C[C@@H](N)c1ccc(C(=O)Nc2ccnc3[nH]ccc23)cc1 + Cc1nc(NC(=O)N2CCC[C@H]2C(N)=O)sc1-c1ccnc(C(C)(C)C(F)(F)F)c1 [Alpelisib] (partner 2 µM)
How it was run: as §1

UMC-11
relative viability (Tanzisertib + Lapatinib; first compound 0.08 µM): 1.13 | relative viability (Tanzisertib + Lapatinib; first compound 0.253 µM): 0.974 | relative viability (Tanzisertib + Lapatinib; first compound 0.8 µM): 1.1 | relative viability (Tanzisertib + Lapatinib; first compound 2.53 µM): 0.89 | relative viability (Tanzisertib + Lapatinib; first compound 8 µM): 0.84 | relative viability ([1]; first compound 0.08 µM): 1 | relative viability ([1]; first compound 0.8 µM): 1.17 | relative viability ([1]; first compound 2.53 µM): 1.09 | relative viability ([1]; first compound 8 µM): 1.09 | relative viability ([2]; first compound 0.08 µM): 0.3 | relative viability ([2]; first compound 0.8 µM): 0.344 | relative viability ([2]; first compound 2.53 µM): 0.321 | relative viability ([2]; first compound 8 µM): 0.355 | relative viability ([3]; first compound 0.04 µM): 1.12 | relative viability ([3]; first compound 0.1265 µM): 1.05 | relative viability ([3]; first compound 0.4 µM): 1.14 | relative viability ([3]; first compound 1.265 µM): 0.997 | relative viability ([3]; first compound 4 µM): 0.467

Source: the supplement of paper PMC10307832
